The values below are quoted from earlier work in patent publication US8916562B2, “Methods and compositions for safe and effective treatment of telangiectasia” (Galderma Research & Development SNC, priority 2010, dated 2014).

Molecules are shown by their SMILES.

The conditions of this series: brimonidine ophthalmic treatment, clinical trials.

As for `Brc1c(NC2=NCCN2)ccc2nccnc12` [brimonidine, (5-bromo-quinoxalin-6-yl)-(4,5-dihydro-1H-imidazol-2-yl)-amine], the “patients reporting hypertension, palpitations and syncope” value is reported as “less than 3%”.
